One data set addresses T1, rh CYP3A4 supersomes (Homo sapiens, UniProt P08684).
T1 construct: purchased Corning Life Sciences B.V. (Amsterdam, The Netherlands)
Put plainly: Ivermectin metabolism by recombinant human CYP3A4 supersomes. Type of data set: in vitro ADME. The conditions noted are these: 10 µM ivermectin, within 1 h. How it is done: (§1) The assay mixture was heated for 10 min at 37 °C in a Thermomixer 5436 (Eppendorf, Hamburg, Germany) and the reaction was initiated by the addition of supersomes. Samples (50 μL) were taken after 0, 15, 30, 45, and 60 min. […] After centrifugation (30 min at 3220×g and 15 °C, 5810 R Eppendorf centrifuge), sample supernatants (10 µL) were analysed by LC–MS/MS. Metabolite production was quantified by dividing the metabolite peak area with the ISTD peak area. Each metabolism assay was performed in triplicate.

The next data set deals with T2, rh CYP3A5 supersomes (Homo sapiens, UniProt P20815).
T2 construct: purchased Corning Life Sciences B.V. (Amsterdam, The Netherlands)
T2 sequence (P20815 whole entry): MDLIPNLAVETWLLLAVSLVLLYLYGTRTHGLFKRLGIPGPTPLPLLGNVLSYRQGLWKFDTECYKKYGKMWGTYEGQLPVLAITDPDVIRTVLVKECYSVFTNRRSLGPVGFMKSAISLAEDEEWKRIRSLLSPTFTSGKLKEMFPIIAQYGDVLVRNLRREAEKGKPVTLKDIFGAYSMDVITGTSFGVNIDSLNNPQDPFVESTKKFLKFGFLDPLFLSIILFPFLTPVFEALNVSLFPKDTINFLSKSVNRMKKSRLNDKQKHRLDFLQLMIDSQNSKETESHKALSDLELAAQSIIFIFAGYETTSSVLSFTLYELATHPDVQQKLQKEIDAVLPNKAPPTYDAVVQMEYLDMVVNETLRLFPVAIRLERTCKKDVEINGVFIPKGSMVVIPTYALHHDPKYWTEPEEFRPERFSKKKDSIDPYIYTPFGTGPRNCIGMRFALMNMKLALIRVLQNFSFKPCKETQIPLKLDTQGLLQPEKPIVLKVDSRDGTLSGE
Description: Ivermectin metabolism by recombinant human CYP3A5 supersomes. Type of data set: in vitro ADME. The conditions noted are these: 10 µM ivermectin, within 1 h. How it is done: as §1

Data set [1] deals with Anopheles stephensi mosquitoes. Description: Anopheles stephensi membrane feeding screening assay (survival and activity). Type of data set: in vivo. As to conditions: for Average activity score: score +2 flying, +1 moving, 0 dead. How it is done:
The final DMSO content in blood was 0.1%, which was also the DMSO concentration used for the negative control assays (0.1% DMSO in blank blood). Inclusion of blank fractions as additional negative controls were not considered, because it would not have been feasible to also test the corresponding blank fraction for each metabolite fraction (F1–F9). The blood preparations were rotated at room temperature for 20 min to ensure a uniform metabolite distribution (Rotator Genie, Scientific Industries, Bohemia, USA). The dissolution of the metabolites was confirmed by LC–MS/MS.
Around 50–70 female mosquitoes aged 5–10 days post-emergence were transferred with a mouth aspirator into 20 mL paper cups. A piece of mosquito netting was used to cover the cups. Mosquitoes were starved for 24 h before treatment. The mosquito blood meals were heated in a water bath (SAHARA PPO S5P Heated Bath Circulators, Thermo Fisher Scientific, New Hampshire, USA) for 20 min at 39 °C. A Petri dish (35 mm × 10 mm, BD, Franklin Lakes, USA) was filled with 3 mL of warm blood, sealed with a piece of sealing film (Parafilm®, Huberlab AG, Aesch, Switzerland). The Petri dish was placed upside down on top of the net sealing the paper cup. Female mosquitoes were allowed to feed for 20 min on the blood through the net and the sealing film. The feeding was conducted in a climate chamber (HPP110, Memmert GmbH + Co.KG, Schwabach, Germany) at 27 °C, 70% humidity, and 30% light intensity. After feeding, the cups were put on ice to immobilise the mosquitoes and only the fully engorged mosquitoes were selected for the assay. The mosquitoes were returned to the climate chamber to assess their activity and survival for 3 days.
In the framework of screening assays, mosquitoes were treated with blood containing each metabolite corresponding to Cmax levels observed in PK samples. […] In screening assays, eleven treatments were evaluated with three replicates using three batches of 50–70 mosquitoes.

Data set [2] deals with Anopheles stephensi mosquitoes. Put plainly: 3-day LC50 in Anopheles stephensi (membrane feeding, dilutions). The conditions noted are these: 72 h after blood feeding. Type of data set: in vivo. How it is done: A pilot test was performed to evaluate optimal dilutions matching the expected LC50 values (data not shown).
Student's t test was adopted to test the significance of all mean survival differences between groups, using the R package ggsignif (version 0.6.4). Survival analyses, summary and visualisation of survival analysis were computed using the GNU R packages survival (version 3.1-8) and survminer (version 0.4.9). Replicates were pooled and analysed by the logrank test and the hazard ratio with 95% confidence intervals. LC50 in An. stephensi mosquito were approximated with regression analysis, using GNU R package drc (version 3.0-1) for analysis of dose–response curves (Additional file 1: Fig. S3). The time above LC50 estimation (Additional file 1: Fig. S4) was computed using the GNU R package data.table (version 1.14.6).

The conditions of data set [3]: plasma, single oral 12 mg ivermectin, mean ± SD; cited from earlier work.
For data set [4] the following is noted: cited from earlier work.
The test system of a further data set is Aedes aegypti. As to conditions: cited from earlier work.
In the next data set the test system is An. stephensi. The conditions noted are these: cited from earlier work.
Another data set relates to An. gambiae. As to conditions: cited from earlier work.

In brackets after ≈: the same amount, converted by molar mass. Where two headings read alike, the source gives them in different places.

As a reminder, the LC50 is the concentration that kills 50% of the test population. Broadly, the Cmax is the maximum level reached in the sampled fluid or tissue. As usually defined, the Tmax is the time at which the peak concentration occurs.

T1 sequence (P08684 whole entry): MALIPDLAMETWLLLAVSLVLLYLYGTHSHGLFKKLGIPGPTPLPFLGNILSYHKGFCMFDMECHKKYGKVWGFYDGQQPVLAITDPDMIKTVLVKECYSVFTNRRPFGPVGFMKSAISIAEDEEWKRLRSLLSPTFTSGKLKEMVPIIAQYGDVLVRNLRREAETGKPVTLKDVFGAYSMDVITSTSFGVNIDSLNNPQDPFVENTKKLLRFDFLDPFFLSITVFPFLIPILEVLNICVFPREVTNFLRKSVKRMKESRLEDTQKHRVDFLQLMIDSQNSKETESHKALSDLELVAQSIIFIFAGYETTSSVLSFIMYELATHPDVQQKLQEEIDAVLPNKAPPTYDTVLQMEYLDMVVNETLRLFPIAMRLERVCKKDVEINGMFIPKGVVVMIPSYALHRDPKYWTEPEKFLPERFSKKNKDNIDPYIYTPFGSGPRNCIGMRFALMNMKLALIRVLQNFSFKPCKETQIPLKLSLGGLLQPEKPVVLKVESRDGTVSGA

Take `CCC(C)C1OC2(CCC1C)CC1CC(CC=C(C)C(OC3CC(OC)C(OC4CC(OC)C(O)C(C)O4)C(C)O3)C(C)C=CC=C3COC4C(O)C(C)=CC(C(=O)O1)C34O)O2` (stereo not shown) [Ivermectin, 22,23-dihydroavermectin B1a, reference compound]: the ivermectin metabolised on rh CYP3A4 supersomes is 80%; at rh CYP3A5 supersomes, 20%. In addition, the Average activity score in data set [1] (0 h post feeding) was determined as 2.00; in data set [1] (24 h post feeding) it was 0.71 ± 0.05; in [1] (24 h post feeding, listed as IVM), 0.71; in [1] (48 h post feeding), 0.03 ± 0.02; in data set [1] (48 h post feeding, listed as IVM), 0.03; in [1] (72 h post feeding), 0. The “mean survival of mosquitoes after blood meal” value in data set [1] (blood meal at Cmax level) is reported as “decreased”. Besides, the “mosquitoes dead after 72 h” value in [1] (blood meal at Cmax level (ivermectin 50 ng/mL), 72 h after treatment) came to 100%. The “3-day LC50” value in data set [2] is on record as 3.07 ng/mL. Moreover, the LC50 in [2] (Anopheles stephensi, 72 h) is about 3 ng/mL (≈ 3.43 nM). The Cmax in [3] was 70.7 ± 16.1 ng/mL. In data set [3], the Half-life is listed as 38.9 ± 20.8 h. Besides, the Tmax in data set [3] is reported as 4.4 ± 1.4 h. Moreover, the estimated half-life in data set [4] was 24 to 72 h. Moreover, the peak concentration result in data set [4] (single oral dose of 150 µg/kg) was “around 40 ng/mL”. In addition, in data set [4] (single oral dose of 150 µg/kg), the “time of peak concentration” value was “Approximately 4 h”. Further, the “LC50 within 7-days” value with Aedes aegypti is 178 to 187 ng/mL. In the data set with An. stephensi, the 4-day-LC50 is listed as 7 ng/mL. For the same molecule, the 7-day-LC50 in the data set with An. gambiae (blood fed from treated humans) is recorded as 3.4 ng/mL; in the data set with An. gambiae (spiked ivermectin experiments (in vitro mixture)) it was 15.9 ng/mL.

The values are drawn from PMC10290335 (Malaria Journal, 2023).
